Measurements as given in paper PMC11952846, “The sterol-regulating human ARV1 binds cholesterol and phospholipids through its conserved ARV1 homology domain” (The Journal of Biological Chemistry, 2025).
Positions count from the first letter of the chain named.

Columns and labels:
6XHIS-ARV1-N98 K67A = target: T1, 6XHIS-ARV1-N98 K67A (Homo sapiens, UniProt Q9H2C2, K67A); test: Lipid overlay far western, site-directed mutant; format: binding; conditions: compared to the ARV1-N98 protein
T1 construct: Expressing amino-terminal 98 amino acids of ARV1; made in house; host or cells: E. coli BL21 (pET-28a(+))
T1 sequence (Q9H2C2 1-98 K67A): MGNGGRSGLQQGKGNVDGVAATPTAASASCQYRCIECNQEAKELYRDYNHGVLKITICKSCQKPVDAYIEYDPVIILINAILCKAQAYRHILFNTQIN
Method: (§1) Lipid overlays were blocked in TBST-BSA (100 mM Tris–HCl buffer, pH 7.5, 150 mM NaCl, 0.5% Tween 20, 3% bovine serum albumin) for 1 h and subsequently washed eight separate times with TBST for 2 min each. Overlays were incubated with 0.5 μg/ml GST-tagged or 6XHIS-tagged proteins in 3% TBST-BSA buffer containing 0.1% Triton X-100, for 1 h at room temperature and washed as above. Overlays were incubated with either anti-GST or anti-6XHIS monoclonal antibodies at a 1:1000 dilution in TBST-BSA for 1 h at room temperature followed by eight washes in TBST. Overlays were visualized using Immobilon Western Chemiluminescent horseradish peroxidase substrate and protein–lipid interaction was detected using a GE ImageQuant LAS 3000 imager.

6XHIS-ARV1-N98 C34/C37A = target: T2, 6XHIS-ARV1-N98 C34/C37A (Homo sapiens, UniProt Q9H2C2, C34A/C37A); test: Lipid overlay far western, site-directed mutant; format: binding; conditions: compared to the ARV1-N98 protein
T2 construct: Expressing amino-terminal 98 amino acids of ARV1; made in house; host or cells: E. coli BL21 (pET-28a(+))
T2 sequence (Q9H2C2 1-98 C34A/C37A): T1 sequence (Q9H2C2 1-98 K67A) with C34A, C37A, A67K
Method: as §1

6XHIS-ARV1-N98 K84A = target: T3, 6XHIS-ARV1-N98 K84A (Homo sapiens, UniProt Q9H2C2, K84A); test: Lipid overlay far western, site-directed mutant; format: binding; conditions: compared to the ARV1-N98 protein
T3 construct: Expressing amino-terminal 98 amino acids of ARV1; made in house; host or cells: E. coli BL21 (pET-28a(+))
T3 sequence (Q9H2C2 1-98 K84A): T1 sequence (Q9H2C2 1-98 K67A) with A67K, K84A
Method: as §1

GST-Annexin A2 [1] = target: T4, GST-Annexin A2 (Homo sapiens, UniProt P07355); test: Lipid overlay far western (positive control protein); format: binding
T4 sequence (P07355 whole entry): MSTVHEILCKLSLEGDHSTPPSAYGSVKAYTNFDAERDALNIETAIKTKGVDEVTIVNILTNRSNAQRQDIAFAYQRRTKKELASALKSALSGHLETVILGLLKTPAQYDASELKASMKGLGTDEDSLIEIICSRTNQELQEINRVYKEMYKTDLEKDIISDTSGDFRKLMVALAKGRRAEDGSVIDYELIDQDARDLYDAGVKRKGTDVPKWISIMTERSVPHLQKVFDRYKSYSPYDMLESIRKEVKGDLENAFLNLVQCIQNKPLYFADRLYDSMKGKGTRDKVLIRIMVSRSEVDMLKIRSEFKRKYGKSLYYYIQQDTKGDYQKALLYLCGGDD
Method: as §1

[2] = target: T5, GST-ARV1 (full-length ARV1) (Homo sapiens, UniProt Q9H2C2); test: Lipid overlay far western; format: binding
T5 construct: Expresses full length ARV1; made in house; host or cells: E. coli BL21 (pGEX-4T1)
T5 sequence (Q9H2C2 1-271): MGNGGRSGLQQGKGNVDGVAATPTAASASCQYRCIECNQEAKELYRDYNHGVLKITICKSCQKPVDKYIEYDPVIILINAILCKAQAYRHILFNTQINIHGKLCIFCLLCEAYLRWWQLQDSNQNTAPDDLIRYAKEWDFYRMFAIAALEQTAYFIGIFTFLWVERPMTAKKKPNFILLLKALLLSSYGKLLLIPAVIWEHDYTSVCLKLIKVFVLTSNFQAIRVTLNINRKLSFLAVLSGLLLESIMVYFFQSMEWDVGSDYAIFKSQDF
Method: as §1

GST-ARV1-N98 = target: T6, GST-ARV1-N98 (Homo sapiens, UniProt Q9H2C2); test: Lipid overlay far western; format: binding
T6 construct: Expresses amino-terminal 98 amino acids of ARV1; made in house; host or cells: E. coli BL21 (pGEX-4T1)
T6 sequence (Q9H2C2 1-98): T1 sequence (Q9H2C2 1-98 K67A) with A67K
Method: as §1

GST-ARV1-N70 = target: T7, GST-ARV1-N70 (Homo sapiens, UniProt Q9H2C2); test: Lipid overlay far western, truncation; format: binding; conditions: compared to ARV1-N98
T7 construct: Expresses amino-terminal 70 amino acids of ARV1; made in house; host or cells: E. coli BL21 (pGEX-4T1)
T7 sequence (Q9H2C2 1-70): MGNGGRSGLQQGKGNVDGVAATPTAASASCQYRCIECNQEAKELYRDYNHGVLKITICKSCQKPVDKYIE
Method: as §1

GST-ARV1-N50 = target: T8, GST-ARV1-N50 (Homo sapiens, UniProt Q9H2C2); test: Lipid overlay far western, truncation; format: binding; conditions: compared to ARV1-N98 / ARV1-N70
T8 construct: Expresses amino-terminal 50 amino acids of ARV1; made in house; host or cells: E. coli BL21 (pGEX-4T1)
T8 sequence (Q9H2C2 1-50): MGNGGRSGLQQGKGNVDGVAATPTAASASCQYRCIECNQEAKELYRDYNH
Method: as §1

[3] = target: T5, GST-ARV1 (full-length ARV1); test: Protein-lipid liposome binding assay (ultracentrifugation, Western blot)
Method: (§2) Lyophilized lipids were reconstituted in chloroform at 10 mg/ml and stored in glass tubes with Teflon tops at −20 °C until use. One milliliter of 10 mg/ml stock was dried under a stream of nitrogen in a glass tube until a lipid cake/film was formed. The lipid cake was then rehydrated in BLT rehydration buffer (5 mM Tris/HCl, pH 7.4, containing 150 mM NaCl) to a concentration of 1 mg/ml. Lipid suspensions were subjected to three freeze/thaw cycles using a dry ice ethanol/[…] water bath to encapsulate the buffer and improve liposome formation. The suspension and lipid extruder were equilibrated to temperature for 10 min and liposomes were extruded using […] polycarbonate membranes (Avestin). Liposomes were made by mixing stock lipid PL (1 mg/ml) with PC (10 mg/ml).
(§3) Cholesterol composition liposomes were rehydrated with cholesterol rehydration buffer (10 mM Hepes, pH 7.4, containing 150 mM KCl).
(§4) Liposomes were serial diluted in floatation buffer (100 mM NaCl, 2 mM EDTA, pH 5.5) to a final concentration of 0.1 mg/ml. Nine hundred microliters of liposome solution was placed in clear ultracentrifuge tubes and mixed with 100 μl of 0.01 μg/ml of protein. The liposome/protein solution was incubated at room temperature for 1 h with occasional shaking. An initial 100 μl of liposome/protein solution (liposomes) was removed and the remaining 900 μl was centrifuged at 50,000g for 20 min at 4 °C. The pellet was resuspended in 800 μl of fresh floatation buffer, centrifuged as above, and 800 μl of supernatant was removed (wash 1). This was repeated a second time and again 800 μl of supernatant was removed (wash 2). The final pellet was resuspended in 100 μl of floatation buffer plus SDS treatment buffer (pellet). Thirty microliters of each fraction was run on a 15% SDS-PAGE gel and probed with an anti-GST monoclonal antibody at a 1:1500 dilution.

[4] = target: T9, GST-ARV1-N98 (N-terminal 98 amino acids, AHD) (Homo sapiens, UniProt Q9H2C2); test: as above
T9 construct: Expresses amino-terminal 98 amino acids of ARV1; made in house; host or cells: E. coli BL21 (pGEX-4T1)
T9 sequence (Q9H2C2 1-98): T1 sequence (Q9H2C2 1-98 K67A) with A67K
Method: as §2, §3, §4

6XHIS-ARV1-N98 = target: T10, 6XHIS-ARV1-N98 (Homo sapiens, UniProt Q9H2C2); test: HTRF phospholipid lipid-binding assay; conditions: biotinylated lipid (Bio-PL) titrated, 0.75 μM protein; lipid labels mean the biotinylated lipids
T10 construct: made in house; host or cells: E. coli BL21
T10 sequence (Q9H2C2 1-98): T1 sequence (Q9H2C2 1-98 K67A) with A67K
Description: An HTRF assay was developed for 6XHIS-ARV1-N98-lipid binding. HTRF measures analyte interactions through fluorescence resonance energy transfer technology and time-resolved measurements ([53]). The interaction between two molecules can be quantified through binding each individual molecule involved with a fluorescent label and then analyzing the transfer of energy between the initial donor fluorophore and the secondary acceptor fluorophore. Following excitation of the first fluorophore, transfer of energy can only occur if the molecules bound with the fluorescent tags are within proximity to each other.
Assays were plated in 384-well flat bottom microplates (Greiner Bio, catalog #784075-25). Proteins were diluted using binding buffer (20 mM Hepes buffer, pH 7.2, containing 0.1% BSA, and 0.01% Tween20) to a stock concentration of 0.75 μM, and biotinylated phospholipids were dispensed, dried under nitrogen gas, and resuspended in binding buffer to a stock concentration of 50 μM. The lipid stock solution was diluted by 1:2 for a series of 12 serial dilutions. For the assay, in sequential order, 6 μl of binding buffer was loaded into the plate in triplicate for each dilution of phospholipid. To this, 2 μl of 0.75 μM 6XHIS-ARV1-N98 was added, followed by 2 μl of biotinylated phospholipid. Immediately following each addition loaded into the plate, the plate was centrifuged for 1 min at 1000 rpm to bring the contents to the bottom of the well. Next, detection antibodies were mixed with detection buffer (20 mM Hepes buffer, pH 8.5, containing 0.01% BSA and 200 mM KF). […] Plates were read on a PerkinElmer EnVision Xcite Multilabel plate reader.
Curves were logarithmically transformed and normalized to a common scale before being fit with a nonlinear regression of the agonist against the normalized response. […] For phospholipid competition analysis, IC50; M values were determined using nonlinear regression of the inhibitor against normalized response.

GST-Annexin A2 [5] = target: T4, GST-Annexin A2; test: Protein-lipid liposome binding assay (positive control protein); conditions: protein detected in final pellet
Method: as §2, §4

[6] = lipid-embedded membrane strips, incl. sphingolipid strip
[7] = PIP lipid membrane strip, 100pmol-1.56pmol per spot
[8] = liposomes containing 10% and 20% cholesterol
[9] = liposomes containing 30 to 50% cholesterol
[10] = protein detected in final pellet

`CCCCCC(=O)O[C@H](COC(=O)CCCCCNC(=O)CCCC[C@@H]1SC[C@@H]2NC(=O)N[C@@H]21)COP(=O)(O)O[C@@H]1[C@H](O)[C@H](O)[C@@H](OP(=O)(O)O)[C@H](OP(=O)(O)O)[C@H]1O` [PI(4,5)P2, reference compound] was tested, and the “change of lipid-protein interaction” value (6XHIS-ARV1-N98 K67A) was “increased interactions”, the “change of lipid-protein interaction” value (6XHIS-ARV1-N98 C34/C37A) was “enhanced interactions” and the “change of lipid-protein interaction” value (6XHIS-ARV1-N98 K84A) was “increased interactions”. The lipid-protein interaction (GST-Annexin A2 [1]; [6]) was “interacted”.

With `CCCCCC(=O)O[C@H](COC(=O)CCCCCNC(=O)CCCC[C@@H]1SC[C@@H]2NC(=O)N[C@@H]21)COP(=O)(O)O[C@H]1[C@H](O)[C@@H](OP(=O)(O)O)[C@H](O)[C@@H](O)[C@H]1O` [PI(5)P, reference compound] the lipid-protein interaction (GST-Annexin A2 [1]; [7]) was “strongest interactions”, the lipid-protein interaction [2, 7] was “interacted” and the lipid-protein interaction (GST-ARV1-N98; [7]) was “interacted”. For the same molecule, the “change of lipid-protein interaction” value (GST-ARV1-N70) was “reduced interactions” and the “change of lipid-protein interaction” value (GST-ARV1-N50) was “eliminated”.

In the case of `CC(C)CCC[C@@H](C)[C@H]1CC[C@H]2[C@@H]3CC=C4C[C@@H](O)CC[C@]4(C)[C@H]3CC[C@]12C` [cholesterol], the “binding to PC:Chol liposomes” value [3, 8] is reported as “bound”, the “binding to PC:Chol liposomes” value [3, 9] is reported as “neither ARV1 nor ARV1-N98 associated” and the “binding to PC:Chol liposomes” value [4, 8] is reported as “bound”. The “binding to PC:Chol liposomes” value [4, 9] was “neither ARV1 nor ARV1-N98 associated”, the lipid-protein interaction [2, 6] was “not seen” and the lipid-protein interaction (GST-ARV1-N98; [6]) was “not seen”.

For `CCCCCCCC/C=C\CCCCCCCC(=O)OC[C@@H](O)COP(=O)(O)O` [lyso-phosphatidic acid], the lipid-protein interaction [2, 6] was “not seen” and the lipid-protein interaction (GST-ARV1-N98; [6]) was “not seen”.

`CCCCCCCCCCCCCC[C@@H](O)[C@@H](O)[C@@H](N)CO` [phytosphingosine] was tested, and the lipid-protein interaction [2, 6] was “not” and the lipid-protein interaction (GST-ARV1-N98; [6]) was “not”.

In the case of `CCCCCC(=O)O[C@H](COC(=O)CCCCCNC(=O)CCCC[C@@H]1SC[C@@H]2NC(=O)N[C@@H]21)COP(=O)(O)O[C@@H]1[C@H](O)[C@H](OP(=O)(O)O)[C@@H](O)[C@H](O)[C@H]1O` [reference compound], the lipid-protein interaction (GST-Annexin A2 [1]; [7]) is reported as “strongest interactions”, the lipid-protein interaction [2, 7] is reported as “interacted” and the lipid-protein interaction (GST-ARV1-N98; [7]) is reported as “interacted”. For the same molecule, the “change of lipid-protein interaction” value (GST-ARV1-N70) was “reduced interactions” and the “change of lipid-protein interaction” value (GST-ARV1-N50) was “enhanced”.

For `CCCCCCCCCCCCC/C=C/[C@@H](O)[C@@H](N)COP(=O)(O)O` [sphingosine-1-phosphate], the lipid-protein interaction [2, 6] was “not” and the lipid-protein interaction (GST-ARV1-N98; [6]) was “not”.

For `CCCCCCCCCCCCC/C=C/[C@@H](O)[C@@H](N)CO` [sphingosine], the lipid-protein interaction [2, 6] was “not” and the lipid-protein interaction (GST-ARV1-N98; [6]) was “not”.

PI(3,4,5)P3 was tested, and the “change of lipid-protein interaction” value (6XHIS-ARV1-N98 K67A) was “increased interactions”, the “change of lipid-protein interaction” value (6XHIS-ARV1-N98 K84A) was “increased interactions” and the lipid-protein interaction (GST-Annexin A2 [1]; [6]) was “interacted”.

In the case of ceramide, the lipid-protein interaction [2, 6] is reported as “not” and the lipid-protein interaction (GST-ARV1-N98; [6]) is reported as “not”.

For lyso-phosphatidylcholine, the lipid-protein interaction [2, 6] was “not seen” and the lipid-protein interaction (GST-ARV1-N98; [6]) was “not seen”.

In the case of “phosphatidylinositol [PI, reference compound]”, the EC50 (6XHIS-ARV1-N98) is reported as 12 µM, the “binding to PC:PL liposomes” value [3, 10] is reported as “not” and the “binding to PC:PL liposomes” value [4, 10] is reported as “not”. The “binding to PC:PL liposomes” value (GST-Annexin A2 [5]) was “not”.
